# Measured values published in the supplement of paper PMC11061612.
# Key:
# [1] = system: HPAF-II (Pancreatic Carcinoma); test: Bliss excess, mean over the matrix (fraction); higher = more synergy
# Method in brief: (§1)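 Bliss excess equals the observed combination effect minus the expected value EA + EB − EA·EB, where EA and EB are the effects of each agent alone. Combination Emax is the second-highest inhibition within the matrix. Inhibition was scaled from CellTiter-Glo 2.0 luminescence, with 0 set by vehicle wells and 1 by blank wells, after 72 hours of two-drug dosing of cells plated in 1536-well plates.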
# [2] = system: NCI-H2373 (Mesothelioma); test: combination Emax (second highest fraction inhibited in the dose matrix, 72 h); higher = more inhibition; extreme values may be limits of the assay
# Method in brief: as §1
# [3] = system: SK-CO-1 (Colorectal Carcinoma); test: as above
# Method in brief: as §1
# [4] = system: GAK (Melanoma); test: as above
# Method in brief: as §1
# [5] = system: SUP-M2 (T-Cell Non-Hodgkin's Lymphoma); test: as above
# Method in brief: as §1
# [6] = system: BxPC-3 (Pancreatic Carcinoma); test: as above
# Method in brief: as §1
# [7] = system: IA-LM (Non-Small Cell Lung Carcinoma); test: as above
# Method in brief: as §1
# [8] = system: PL4 (Pancreatic Carcinoma); test: as above
# Method in brief: as §1
# [9] = system: OVCAR-3 (Ovarian Carcinoma); test: as above
# Method in brief: as §1
# [10] = system: ES6 (Ewing's Sarcoma); test: as above
# Method in brief: as §1
# [11] = system: BHT-101 (Thyroid Gland Carcinoma); test: as above
# Method in brief: as §1
# [12] = system: SiHa (Cervical Carcinoma); test: as above
# Method in brief: as §1
# [13] = system: HPAF-II (Pancreatic Carcinoma); test: as above
# Method in brief: as §1
# [14] = system: P32-ISH (Burkitt's Lymphoma); test: as above
# Method in brief: as §1
# [15] = system: SNU-423 (Hepatocellular Carcinoma); test: as above
# Method in brief: as §1
# [16] = system: COR-L88 (Small Cell Lung Carcinoma); test: as above
# Method in brief: as §1
Structure (SMILES),Bliss excess [1],combination Emax [2],combination Emax [3],combination Emax [4],combination Emax [5],combination Emax [6],combination Emax [7],combination Emax [8],combination Emax [9],combination Emax [10],combination Emax [11],combination Emax [12],combination Emax [13],combination Emax [14],combination Emax [15],combination Emax [16]
"Cn1cnc2c(F)c(Nc3ccc(Br)cc3Cl)c(C(=O)NOCCO)cc21 [Selumetinib] + C=CCn1c(=O)c2cnc(Nc3ccc(N4CCN(C)CC4)cc3)nc2n1-c1cccc(C(C)(C)O)n1 [AZD1775] (first compound max 10 µM, partner max 1 µM)",0.039,0.342,0.794,0.719,0.996,0.557,0.296,0.63,0.626,0.233,0.828,0.22,0.728,0.999,0.396,0.666
"Cn1cnc2c(F)c(Nc3ccc(Br)cc3Cl)c(C(=O)NOCCO)cc21 [Selumetinib] + CC(C)n1c(=O)n(C)c2cnc3cc(F)c(-c4ccc(OCCCN5CCCCC5)nc4)cc3c21 [AZD1390] (first compound max 10 µM, 7x7, partner max 0.3 µM)",0.0088,0.298,0.776,0.626,0.168,0.4,0.244,0.567,0.048,0.147,0.791,0.156,0.64,0.101,0.275,0.198
"Cn1cnc2c(F)c(Nc3ccc(Br)cc3Cl)c(C(=O)NOCCO)cc21 [Selumetinib] + CCN(CCO)CCCOc1ccc2c(Nc3cc(CC(=O)Nc4cccc(F)c4)[nH]n3)ncnc2c1 [AZD2811] (first compound max 10 µM, 7x7, partner max 1 µM)",0.0129,0.284,0.878,0.629,0.998,0.407,0.28,0.572,0.182,0.15,0.846,0.22,0.682,0.867,0.264,0.257
"Cn1cnc2c(F)c(Nc3ccc(Br)cc3Cl)c(C(=O)NOCCO)cc21 [Selumetinib] + C[C@@H]1COCCN1C2=NC(=NC(=C2)C3(CC3)[S@](=N)(=O)C)C4=C5C=CNC5=NC=C4 [AZD6738] (first compound max 10 µM, 7x7, partner max 10 µM)",0.0119,0.463,0.808,0.667,1,0.494,0.287,0.798,0.4,0.367,0.883,0.209,0.768,0.918,0.285,0.494
